In the assay the target is T1, USP25 (USP25-His6, Boston Biochem E-546) (Homo sapiens, UniProt Q9UHP3).
T1 construct: His6; purchased Boston Biochem E-546
T1 sequence (Q9UHP3 1-1055): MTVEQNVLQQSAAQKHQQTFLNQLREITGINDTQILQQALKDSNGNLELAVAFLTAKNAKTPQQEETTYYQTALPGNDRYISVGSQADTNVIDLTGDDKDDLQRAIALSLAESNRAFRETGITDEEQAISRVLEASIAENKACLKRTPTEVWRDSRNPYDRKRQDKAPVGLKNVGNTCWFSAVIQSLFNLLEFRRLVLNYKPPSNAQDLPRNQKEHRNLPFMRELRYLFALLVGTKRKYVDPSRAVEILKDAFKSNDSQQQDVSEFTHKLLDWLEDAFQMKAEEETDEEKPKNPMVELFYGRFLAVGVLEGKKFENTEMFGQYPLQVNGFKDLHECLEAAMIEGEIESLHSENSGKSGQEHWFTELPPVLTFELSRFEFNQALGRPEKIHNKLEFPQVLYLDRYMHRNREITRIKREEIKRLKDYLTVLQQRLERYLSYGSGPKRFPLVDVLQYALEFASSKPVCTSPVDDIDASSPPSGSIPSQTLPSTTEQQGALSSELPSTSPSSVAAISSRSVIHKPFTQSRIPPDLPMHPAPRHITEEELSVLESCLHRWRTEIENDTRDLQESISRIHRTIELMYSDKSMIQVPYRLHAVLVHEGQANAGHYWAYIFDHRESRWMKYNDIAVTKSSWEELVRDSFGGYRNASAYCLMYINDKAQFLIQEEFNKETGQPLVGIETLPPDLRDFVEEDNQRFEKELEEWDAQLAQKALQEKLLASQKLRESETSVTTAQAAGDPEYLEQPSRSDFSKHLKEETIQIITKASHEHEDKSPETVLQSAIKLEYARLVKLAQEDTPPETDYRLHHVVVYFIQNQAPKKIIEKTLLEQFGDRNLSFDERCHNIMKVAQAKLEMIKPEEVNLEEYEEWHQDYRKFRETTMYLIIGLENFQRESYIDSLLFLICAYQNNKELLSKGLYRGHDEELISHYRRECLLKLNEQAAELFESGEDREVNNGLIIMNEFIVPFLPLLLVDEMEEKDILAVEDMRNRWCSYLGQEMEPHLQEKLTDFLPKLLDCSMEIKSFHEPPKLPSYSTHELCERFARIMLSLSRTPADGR
Description: Ubiquitin-Rhodamine 110 Assay for USP25 Activity, Example A-2. Format: biochemical. The settings on record: Ubiquitin-Rhodamine 110 assay, Example A-2; read-out: USP25 A-2 IC50 range. An outline of the steps: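 Cleavage of ubiquitin-rhodamine 110 (25 nM, well below Km) by His-tagged USP25 at 75 pM is measured fluorimetrically after 45 min at room temperature and acid quench. Inhibitors are preincubated with enzyme for 30 minutes. IC50 values come from four-parameter logistic curve fitting.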

Regarding `CO[C@@]1(C)CN(c2ccc3c(c2)OC[C@H](NC(=O)c2sc4nc(C)ccc4c2N)C3)C[C@@H]1N` [Example 281, 3-amino-N-[(3R)-7-[(3S,4S)-4-amino-3-methoxy-3-methylpyrrolidin-1-yl]-3,4-dihydro-2H-1-benzopyran-3-yl]-6-methylthieno[2,3-b]pyridine-2-carboxamide], the IC50 is 0.2 to 2 µM.

Turning to `CO[C@]1(C)CN(c2ccc3c(c2)OC[C@H](NC(=O)c2sc4nc(C)ccc4c2N)C3)C[C@H]1N` [Example 282, 3-amino-N-[(3R)-7-[(3R,4R)-4-amino-3-methoxy-3-methylpyrrolidin-1-yl]-3,4-dihydro-2H-1-benzopyran-3-yl]-6-methylthieno[2,3-b]pyridine-2-carboxamide], the IC50 was in the range of 0.2 to 2 µM.

With `CO[C@@H]1[C@@H](N)CN(c2ccc3c(c2)OC[C@H](NC(=O)c2sc4nc(C)ccc4c2N)C3)[C@H]1C` [Example 283, 3-amino-N-[(3R)-7-[(2S,3R,4S)-4-amino-3-methoxy-2-methylpyrrolidin-1-yl]-3,4-dihydro-2H-1-benzopyran-3-yl]-6-methylthieno[2,3-b]pyridine-2-carboxamide], the IC50 was 0.05 to 0.2 µM.

`CO[C@H]1[C@H](N)CN(c2ccc3c(c2)OC[C@H](NC(=O)c2sc4nc(C)ccc4c2N)C3)[C@@H]1C` [Example 284, 3-amino-N-[(3R)-7-[(2R,3S,4R)-4-amino-3-methoxy-2-methylpyrrolidin-1-yl]-3,4-dihydro-2H-1-benzopyran-3-yl]-6-methylthieno[2,3-b]pyridine-2-carboxamide]: the IC50 lay in the range of 0.05 to 0.2 µM.

In the case of `Cc1ccc2c(N)c(C(=O)N[C@H]3CCc4nc(N5C[C@H](OC6CCC6)[C@@H](N)C5)ccc4C3)sc2n1` [Example 285, 3-amino-N-[(6S)-2-[(3S,4S)-3-amino-4-cyclobutoxypyrrolidin-1-yl]-5,6,7,8-tetrahydroquinolin-6-yl]-6-methylthieno[2,3-b]pyridine-2-carboxamide], the IC50 is more than 2 µM.

As to `CO[C@H]1CN(c2ccc3c(n2)OC[C@H](NC(=O)c2sc4nc(C)cc(C)c4c2N)C3)C[C@@H]1N` [Example 286, 3-amino-N-[(3R)-7-[(3S,4S)-3-amino-4-methoxypyrrolidin-1-yl]-2H,3H,4H-pyrano[2,3-b]pyridin-3-yl]-4,6-dimethylthieno[2,3-b]pyridine-2-carboxamide], the IC50 is more than 2 µM.

Take `Cc1ccc2c(N)c(C(=O)N[C@H]3COc4nc(N5C[C@H](OC(C)C)[C@@H](N)C5)ccc4C3)sc2n1` [Example 287, 3-amino-N-[(3R)-7-[(3S,4S)-3-amino-4-(propan-2-yloxy)pyrrolidin-1-yl]-2H,3H,4H-pyrano[2,3-b]pyridin-3-yl]-6-methylthieno[2,3-b]pyridine-2-carboxamide]: the IC50 was more than 2 µM.

As for `Cc1ccc2c(N)c(C(=O)N[C@H]3COc4cc(N5CC[C@@H](N)C5)ccc4C3)sc2n1` [Example 288, 3-amino-N-[(3R)-7-[(3R)-3-aminopyrrolidin-1-yl]-3,4-dihydro-2H-1-benzopyran-3-yl]-6-methylthieno[2,3-b]pyridine-2-carboxamide], the IC50 lay in the range of 0.2 to 2 µM.

Regarding `CO[C@]12CNC[C@H]1CN(c1ccc3c(c1)OC[C@H](NC(=O)c1sc4nc(C)ccc4c1N)C3)C2` [Example 291, N-[(3R)-7-[(3aS,6aS)-3a-methoxy-octahydropyrrolo[3,4-c]pyrrol-2-yl]-3,4-dihydro-2H-1-benzopyran-3-yl]-3-amino-6-methylthieno[2,3-b]pyridine-2-carboxamide], the IC50 fell in the range of 0.2 to 2 µM.

With `CO[C@@]12CNC[C@@H]1CN(c1ccc3c(c1)OC[C@H](NC(=O)c1sc4nc(C)ccc4c1N)C3)C2` [Example 292, N-[(3R)-7-[(3aR,6aR)-3a-methoxy-octahydropyrrolo[3,4-c]pyrrol-2-yl]-3,4-dihydro-2H-1-benzopyran-3-yl]-3-amino-6-methylthieno[2,3-b]pyridine-2-carboxamide], the 50% inhibitory concentration (IC50) was 0.2 to 2 µM.

As to `CO[C@H]1CN(c2ccc3c(n2)CC[C@H](NC(=O)c2sc4nc(C)cc(C)c4c2N)C3)C[C@@H]1NC(C)=O` [Example 293, 3-amino-N-[(6S)-2-[(3S,4S)-3-acetamido-4-methoxypyrrolidin-1-yl]-5,6,7,8-tetrahydroquinolin-6-yl]-4,6-dimethylthieno[2,3-b]pyridine-2-carboxamide], the IC50 is more than 2 µM.

As for `Cc1ccc2c(N)c(C(=O)N[C@H]3COc4cc(N5C[C@H](C(F)F)[C@@H](N)C5)ccc4C3)sc2n1` [Example 294, 3-amino-N-[(3R)-7-[(3R,4S)-3-amino-4-(difluoromethyl)pyrrolidin-1-yl]-3,4-dihydro-2H-1-benzopyran-3-yl]-6-methylthieno[2,3-b]pyridine-2-carboxamide], the IC50 is 0.05 to 0.2 µM.

On to `Cc1ccc2c(N)c(C(=O)N[C@H]3COc4cc(N5C[C@@H](N)[C@H](C(F)F)C5)ccc4C3)sc2n1` [Example 295, 3-amino-N-[(3R)-7-[(3S,4R)-3-amino-4-(difluoromethyl)pyrrolidin-1-yl]-3,4-dihydro-2H-1-benzopyran-3-yl]-6-methylthieno[2,3-b]pyridine-2-carboxamide], for which the IC50 lay within 0.05 to 0.2 µM.

For the compound `COC[C@@H]1CN(c2ccc3c(n2)CC[C@H](NC(=O)c2sc4nc(C)cc(C)c4c2N)C3)C[C@@H]1N` [Example 296, 3-amino-N-[(6S)-2-[(3R,4R)-3-amino-4-(methoxymethyl)pyrrolidin-1-yl]-5,6,7,8-tetrahydroquinolin-6-yl]-4,6-dimethylthieno[2,3-b]pyridine-2-carboxamide-], the IC50 is more than 2 µM.

Turning to `COC[C@H]1CN(c2ccc3c(n2)CC[C@H](NC(=O)c2sc4nc(C)cc(C)c4c2N)C3)C[C@H]1N` [Example 297, 3-amino-N-[(6S)-2-[(3S,4S)-3-amino-4-(methoxymethyl)pyrrolidin-1-yl]-5,6,7,8-tetrahydroquinolin-6-yl]-4,6-dimethylthieno[2,3-b]pyridine-2-carboxamide], the IC50 is 0.2 to 2 µM.

As for `COC[C@@H]1CN(c2ccc3c(n2)CC[C@H](NC(=O)c2sc4nc(C)cnc4c2N)C3)C[C@@H]1N` [Example 298, 7-amino-N-[(6S)-2-[(3R,4R)-3-amino-4-(methoxymethyl)pyrrolidin-1-yl]-5,6,7,8-tetrahydroquinolin-6-yl]-3-methylthieno[2,3-b]pyrazine-6-carboxamide], the IC50 was more than 2 µM.

As for `COC[C@H]1CN(c2ccc3c(n2)CC[C@H](NC(=O)c2sc4nc(C)cnc4c2N)C3)C[C@H]1N` [Example 299, 7-amino-N-[(6S)-2-[(3S,4S)-3-amino-4-(methoxymethyl)pyrrolidin-1-yl]-5,6,7,8-tetrahydroquinolin-6-yl]-3-methylthieno[2,3-b]pyrazine-6-carboxamide], the IC50 lay within 0.2 to 2 µM.

For the compound `COC[C@@H]1CN(c2nc3c(cc2F)C[C@@H](NC(=O)c2sc4nc(C)ccc4c2N)CC3)C[C@@H]1N` [Example 300, 3-amino-N-[(6S)-2-[(3R,4R)-3-amino-4-(methoxymethyl)pyrrolidin-1-yl]-3-fluoro-5,6,7,8-tetrahydroquinolin-6-yl]-6-methylthieno[2,3-b]pyridine-2-carboxamide], the IC50 is more than 2 µM.

Regarding `COC[C@H]1CN(c2nc3c(cc2F)C[C@@H](NC(=O)c2sc4nc(C)ccc4c2N)CC3)C[C@H]1N` [Example 301, 3-amino-N-[(6S)-2-[(3S,4S)-3-amino-4-(methoxymethyl)pyrrolidin-1-yl]-3-fluoro-5,6,7,8-tetrahydroquinolin-6-yl]-6-methylthieno[2,3-b]pyridine-2-carboxamide], the IC50 was more than 2 µM.

Usually IC50 stands for the point on the concentration scale where inhibition reaches its midpoint.

Values taken from US11524966B1 (Valo Early Discovery, Inc., priority 2017, dated 2022).
